According to patent US12497610B2, “Functional genomics using CRISPR-CAS systems for saturating mutagenesis of non-coding elements, compositions, methods, libraries and applications thereof” (THE BROAD INSTITUTE, INC., priority 2015, dated 2025):

System: human BCL11A erythroid enhancer
Assay: Tiled pooled CRISPR-Cas9 screen for in situ functional mapping of the human BCL11A erythroid enhancer (HbF-high/HbF-low sort, sgRNA deep sequencing)
Assay type: cell-based
Conditions: for Enrichment Score: HbF enrichment, human library NGG and NGG RC sgRNAs filtered for enrichment score >0.259; for Dropout Score: human library sgRNAs that produced HbF enrichment over 0.259
Text: Every 20-mer sequence upstream of an NGG or NAG PAM sequence on the sense or anti-sense strand was identified for both the human and mouse orthologous +55, +58, and +62 DNase hypersensitive site (DHS) as well as BCL11A/BCL11a exon 2. Relative to the human hg 19 reference genome, a reference was used with the following substitutions to approximate a common low-HbF associated haplotype: rs1427407-G, rs1896293-T, rs6706648-T, rs6738440-G, rs7606173-C. Each of the sgRNA oligos were synthesized as previously described (37,41,64) and cloned using a Gibson Assembly master mix (New England Biolabs) into lentiGuide-Puro (Addgene plasmid ID 52963) BsmBI digested, PCR purified, and dephosphorylated. Gibson Assembly products were transformed to electrocompetent E. cloni cells (Lucigen). Sufficient colonies were isolated to ensure 90X library coverage for both human and mouse libraries. Plasmid libraries were deep sequenced (described below) to confirm representation.
Tiled Pooled CRISPR-Cas9 Screen for In Situ Functional Mapping the Human BCL11A Erythroid Enhancer.
HUDEP clone 2 (HUDEP-2) was utilized as previously described by from Nakamura and colleagues (49). HUDEP-2 cells were expanded in StemSpan SFEM (Stem Cell Technologies) supplemented with 10^−6 M dexamethasone (Sigma), 100 ng/mL human stem cell factor (SCF) (R&D), 3 IU/mL erythropoietin (Amgen), 1% L-glutamine (Life Technologies), and 2% penicillin/streptomycin (Life Technologies). 1 μg/mL doxycycline (Sigma) was included in the culture to induce expression of the human papilloma virus type 16 E6/E7 genes (49). HUDEP-2 cells were differentiated in Iscove's Modified Dulbecco's Medium (IMDM) supplemented with 330 μg/mL halo-transferrin (Sigma), 10 μg/mL recombinant human insulin (Sigma), 2 IU/mL heparin (Sigma), 5% human solvent detergent pooled plasma AB (Rhode Island Blood Center), 3 IU/mL erythropoietin (Amgen), 100 ng/mL human stem cell factor (SCF) (R&D), 1 μg/mL doxycycline (Sigma), 1% L-glutamine (Life Technologies), and 2% penicillin/streptomycin (Life Technologies).
HUDEP-2 cells with stable Cas9 expression were transduced at low multiplicity with the human sgRNA library lentivirus pool while in expansion medium. […] Cell numbers were maintained throughout the experiment at levels adequate to exceed 1000× representation of the library. 10 μg/mL blasticidin (Sigma) and 1 μg/mL puromycin (Sigma) were added 24 hours after transduction to select for lentiviral library integrants in cells with Cas9. Cells were cultured in expansion media for one week followed by differentiation media for an additional week.
Intracellular staining was performed by fixing cells with 0.05% glutaraldehyde (grade II) (Sigma) for 10 minutes at room temperature. Cells were centrifuged for 5 minutes at 350 g and then resuspended in 0.1% Triton-X100 (Life Technologies) for 5 minutes at room temperature for permeabilization. Triton X-100 was diluted with phosphate buffered saline (PBS) and then centrifuged at 350 g for 15 minutes. Cells were stained with anti-human antibodies for HbF (clone HbF-1 with FITC or APC conjugation; Life Technologies) and B-hemoglobin antibody (clone 37-8 with PerCP-Cy5 or PE conjugation; Santa Cruz) for 20 minutes in the dark. Cells were washed to remove unbound antibody prior to FACS analysis. 0.2 μg HbF and 2 μg of HbA CB-hemoglobin) antibodies were used per 5 million cells. Control cells exposed to a nontargeting sgRNA sample and BCL11A exon 2 were used as negative and positive controls respectively to establish flow cytometry conditions. Populations of cells with the top and bottom 10% of expression of HbF were sorted by FACS.
After sorting the HbF-high and HbF-low pools, library preparation and deep sequencing was performed as previously described (37). Briefly, genomic DNA was extracted using the Qiagen Blood and Tissue kit. […]

| Substance | Enrichment Score | Dropout Score |
| --- | --- | --- |
| BCL_00008_H_D55 (guide TGAAACCAAGCTTCCTCTGCNGG; listed as DNA, chemistry not given here) | 0.2741 | −0.2303 |
| BCL_00012_H_D55 (guide AAGTGAGCCAGGTGATAGAANGG; listed as DNA, chemistry not given here) | 0.3511 | −0.01983 |
| BCL_00027_H_D55 (guide CCCATGGAGGTGGGGAGATGNGG; listed as DNA, chemistry not given here) | 0.2823 | −0.4562 |
| BCL_00031_H_D55 (guide CTGGCAGACCCTCAAGAGCANGG; listed as DNA, chemistry not given here) | 0.3216 | −1.354 |
| BCL_00051_H_D55 (guide GGAGGTGTGGAGGGGATAACNGG; listed as DNA, chemistry not given here) | 0.3141 | −0.1655 |
| BCL_00057_H_D55 (guide GGAAGGGCCTCTATGTAGACNGG; listed as DNA, chemistry not given here) | 0.46 | −0.4451 |
| BCL_00058_H_D55 (guide CCTCTATGTAGACGGGTGTGNGG; listed as DNA, chemistry not given here) | 0.3237 | −0.4848 |
| BCL_00062_H_D55 (guide AGCAGCCCTGGGCACAGAAGNGG; listed as DNA, chemistry not given here) | 0.3251 | −0.6401 |
| BCL_00064_H_D55 (guide TGCCAACAGTGATAACCAGCNGG; listed as DNA, chemistry not given here) | 0.5108 | −0.3581 |
| BCL_00065_H_D55 (guide GCCAACAGTGATAACCAGCANGG; listed as DNA, chemistry not given here) | 0.4886 | −0.5415 |
| BCL_00073_H_D55 (guide AGCACACAAGATGCACACCCNGG; listed as DNA, chemistry not given here) | 0.4199 | −0.8372 |
| BCL_00082_H_D55 (guide TCACAGGGTGTGCCCTGAGANGG; listed as DNA, chemistry not given here) | 0.4174 | −1.087 |
| BCL_00084_H_D55 (guide AGGGTGTGCCCTGAGAAGGTNGG; listed as DNA, chemistry not given here) | 0.311 | −0.3691 |
| BCL_00085_H_D55 (guide GGGTGTGCCCTGAGAAGGTGNGG; listed as DNA, chemistry not given here) | 0.5011 | −0.6263 |
| BCL_00086_H_D55 (guide CTCCAAGCATTGCATCATCCNGG; listed as DNA, chemistry not given here) | 0.6343 | −0.2703 |
| BCL_00087_H_D55 (guide CATTGCATCATCCTGGTACCNGG; listed as DNA, chemistry not given here) | 0.438 | −0.2253 |
| BCL_00088_H_D55 (guide GCATCATCCTGGTACCAGGANGG; listed as DNA, chemistry not given here) | 0.4386 | −0.3713 |
| BCL_00089_H_D55 (guide TCCTGGTACCAGGAAGGCAANGG; listed as DNA, chemistry not given here) | 0.3559 | −0.7862 |
| BCL_00090_H_D55 (guide CCTGGTACCAGGAAGGCAATNGG; listed as DNA, chemistry not given here) | 0.4651 | −0.5292 |

| Substance | Enrichment Score | Dropout Score |
| --- | --- | --- |
| BCL_00091_H_D55 (guide CCCACTTCCCTTCCTAGAATNGG; listed as DNA, chemistry not given here) | 1.168 | −0.5042 |
| BCL_00092_H_D55 (guide TTCCCTTCCTAGAATTGGCCNGG; listed as DNA, chemistry not given here) | 0.4035 | −0.4369 |
| BCL_00093_H_D55 (guide TCCCTTCCTAGAATTGGCCTNGG; listed as DNA, chemistry not given here) | 0.5283 | −0.5616 |
| BCL_00096_H_D55 (guide AGCAAATAGGCTTAGTGTGCNGG; listed as DNA, chemistry not given here) | 0.3521 | −0.2396 |
| BCL_00108_H_D55 (guide TCTGAGGAGCTAGAGACTTGNGG; listed as DNA, chemistry not given here) | 0.3065 | −0.6499 |
| BCL_00130_H_D58 (guide GGAGTATGGGGAGAGAAGAGNGG; listed as DNA, chemistry not given here) | 0.3752 | −2.212 |
| BCL_00131_H_D58 (guide TGGGGAGAGAAGAGTGGAAANGG; listed as DNA, chemistry not given here) | 0.2698 | −0.3654 |
| BCL_00135_H_D58 (guide CCATCTCCCTAATCTCCAATNGG; listed as DNA, chemistry not given here) | 0.2985 | −0.04502 |
| BCL_00154_H_D58 (guide AGGGAAAAGGGAGAGGAAAANGG; listed as DNA, chemistry not given here) | 0.4446 | −0.3992 |
| BCL_00160_H_D58 (guide TCAGGGGGAGGCAAGTCAGTNGG; listed as DNA, chemistry not given here) | 0.3294 | −0.318 |
| BCL_00181_H_D58 (guide CCTTCCGAAAGAGGCCCCCCNGG; listed as DNA, chemistry not given here) | 0.3399 | 0.2621 |
| BCL_00182_H_D58 (guide CTTCCGAAAGAGGCCCCCCTNGG; listed as DNA, chemistry not given here) | 0.2942 | 0.02396 |
| BCL_00183_H_D58 (guide AAGAGGCCCCCCTGGGCAAANGG; listed as DNA, chemistry not given here) | 0.7853 | −0.5913 |
| BCL_00184_H_D58 (guide CCTGGGCAAACGGCCACCGANGG; listed as DNA, chemistry not given here) | 0.3155 | −0.5414 |
| BCL_00185_H_D58 (guide GCAAACGGCCACCGATGGAGNGG; listed as DNA, chemistry not given here) | 0.3196 | −0.516 |
| BCL_00186_H_D58 (guide CACGCCCCCACCCTAATCAGNGG; listed as DNA, chemistry not given here) | 0.8971 | −0.7965 |
| BCL_00187_H_D58 (guide ATCAGAGGCCAAACCCTTCCNGG; listed as DNA, chemistry not given here) | 2.122 | −0.7444 |
| BCL_00210_H_D62 (guide TAAACAGCCACCCCACACCCNGG; listed as DNA, chemistry not given here) | 0.7026 | −0.8705 |
| BCL_00225_H_D62 (guide ACCTGTAATCCCAGCACTTTNGG; listed as DNA, chemistry not given here) | 0.3328 | −8.821 |
